Test results from PubChem BioAssay (NCI).
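Where inhibition never reached the appropriate level, the endpoint shown equals the highest concentration tested. Otherwise, values were interpolated linearly from a five-concentration, 48-hour dose response in 96-well plates. GI50 marks 50% less growth. TGI denotes the concentration required for complete inhibition of growth.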

Experiments:
Assay in all cases: DTP human tumour cell line panel, 48 h
[1] = tested on: HCT-15 colon
[2] = tested on: U251 CNS
[3] = tested on: MOLT-4 leukemia
[4] = tested on: K-562 leukemia
[5] = tested on: RPMI-8226 leukemia
[6] = tested on: HS 578T breast
[7] = tested on: SF-295 CNS
[8] = tested on: NCI-H23 lung
[9] = tested on: CCRF-CEM leukemia
[10] = tested on: OVCAR-5 ovarian
[11] = tested on: EKVX NSCLC
[12] = tested on: UO-31 renal
[13] = tested on: NCI-H460 lung
[14] = tested on: SK-MEL-5 melanoma
[15] = tested on: MCF7 breast
[16] = tested on: ACHN renal
[17] = tested on: BT-549 breast
[18] = tested on: HCC-2998 colon
[19] = tested on: SK-MEL-2 melanoma
[20] = tested on: SN12C renal
[21] = tested on: SF-539 CNS
[22] = tested on: UACC-62 melanoma
[23] = tested on: LOX IMVI melanoma
[24] = tested on: NCI-H522 lung
[25] = tested on: 786-0 renal
[26] = tested on: MDA-MB-435
[27] = tested on: SK-OV-3 ovarian
[28] = tested on: HOP-92 NSCLC
[29] = tested on: HT29 colon
[30] = tested on: A498 renal

**Q.** What does the source list for `COc1cc2c(c(OC)c1OC)C(=O)CC(c1cccc(NC(=O)c3cc([N+](=O)[O-])ccc3Cl)c1)O2` (centres undefined)?
**A.** TGI [1]: 6.08 µM; GI50 [2]: 4.32 µM; TGI [2]: 25 µM; GI50 [3]: 2.56 µM; TGI [3]: > 100 µM; GI50 [4]: 4.42 µM; TGI [4]: > 100 µM; GI50 [5]: 3.14 µM; TGI [5]: 38.1 µM; GI50 [6]: 3.98 µM; TGI [6]: > 100 µM; GI50 [7]: 7.61 µM; TGI [7]: > 100 µM; GI50 [8]: 5.34 µM; TGI [8]: 26.9 µM; GI50 [9]: 2.44 µM; TGI [9]: 7.84 µM; GI50 [10]: 22.4 µM; TGI [10]: > 100 µM; GI50 [11]: 21.9 µM; TGI [11]: > 100 µM; GI50 [12]: 4.78 µM; TGI [12]: > 100 µM; GI50 [13]: 8.14 µM; TGI [13]: 82.9 µM; GI50 [14]: 8.99 µM; TGI [14]: 73.3 µM; GI50 [15]: 2.56 µM; TGI [15]: > 100 µM; GI50 [16]: 5 µM; TGI [16]: 27.8 µM; GI50 [17]: 2.27 µM; TGI [17]: 16.8 µM; GI50 [18]: 13.7 µM; TGI [18]: > 100 µM; GI50 [19]: 10.8 µM; TGI [19]: 40.1 µM; GI50 [20]: 2.74 µM; TGI [20]: 14.6 µM; GI50 [21]: 3.54 µM; TGI [21]: 18.9 µM; GI50 [22]: 4.17 µM; TGI [22]: 45.3 µM; GI50 [23]: 1.59 µM; TGI [23]: 3.56 µM; GI50 [24]: 3.04 µM; TGI [24]: 15.5 µM; GI50 [25]: 17.5 µM; TGI [25]: > 100 µM; GI50 [26]: 3.51 µM; TGI [26]: 24.8 µM; GI50 [27]: 38.8 µM; TGI [27]: > 100 µM; GI50 [28]: 2.73 µM; TGI [28]: 17.8 µM; GI50 [29]: 7.21 µM; TGI [29]: > 100 µM; GI50 [30]: 45 µM; TGI [30]: > 100 µM
